According to the supplement of paper PMC6723410:

Tests used:
GUMC-403 [1] = assay: viability at highest tested concentration (max response) relative to DMSO (% of DMSO control); higher = less cytotoxic; details: library / dose series: MIPE library, 11-point 1:3 dilution; top concentration 46.1 µM; 48 h
In short: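 Conditionally reprogrammed GUMC-403 papilloma cells from a patient were plated at 700/well in 5 μL F + Y medium in 1536-well plates and left overnight at 37 °C. A pin tool then added 23 nL of library compounds as an 11-point 1:3 series, for 48 h. CellTiter-Glo luminescence was read on a ViewLux and scaled with vehicle wells set to 100% and empty wells to 0%. Each value gives viability at the highest tested concentration relative to vehicle control.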

GUMC-403 [2] = assay: AC50 for reduction of cell viability; higher = less potent; details: library / dose series: MIPE library, 11-point 1:3 dilution; 48 h

Compound | viability (GUMC-403 [1]) | AC50 for reduction of cell viability (GUMC-403 [2])
C=CCNC1=C2C[C@@H](C)C[C@H](OC)[C@H](O)[C@@H](C)/C=C(\C)[C@H](OC(N)=O)[C@@H](OC)/C=C\C=C(/C)C(=O)NC(=CC1=O)C2=O | 65.3 | 4.18 µM
CS[C@H]1SC[C@@H]2C(=O)N(C)[C@H](C(C)C)C(=O)OC[C@H](NC(=O)c3cnc4ccccc4n3)C(=O)N[C@H](C)C(=O)N(C)[C@H]1C(=O)N(C)[C@H](C(C)C)C(=O)OC[C@H](NC(=O)c1cnc3ccccc3n1)C(=O)N[C@H](C)C(=O)N2C | 14.4 | 0.0209 µM
CC(NCc1ccc2c(c1)[nH]/c(=N\C(=O)c1ccc(-c3cn[nH]c3)s1)n2CC(C)(C)O)C(C)(C)C (configuration not stated) | 6.2 | 0.935 µM
COC(=O)CCC1=C(C)C2=CC3=NC(=CC4=C(C)C(=C([NH]4)C=C\5N=C(C=C1[NH]2)\C(=C5C)CCC(O)=O)C=C)\C6=C\C=C(/[C@@H](C(=O)OC)[C@@]36C)C(=O)OC | 32.5 | 0.662 µM
Cc1nc(N)sc1-c1ccnc(Nc2ccc(N3CCOCC3)cc2)n1 | 29.8 | 26.4 µM
COc1ncc(-c2ccc3nccc(-c4ccnnc4)c3c2)cc1N[S+](=O)([O-])c1ccc(F)cc1F | 9.41 | 0.59 µM
CN1CCN(c2cc(C(=O)Nc3ccc4c(c3)-c3c(c(C(N)=O)nn3-c3ccc(F)cc3)CC4)c(Cl)cn2)CC1 | 7.1 | 5.26 µM
CC(C)C[C@H](NC(=O)[C@H](CCc1ccccc1)NC(=O)CN1CCOCC1)C(=O)N[C@@H](Cc1ccccc1)C(=O)N[C@@H](CC(C)C)C(=O)[C@@]1(C)CO1 | 6.18 | 1.05 µM
C1=C/COCc2cc(ccc2OCCN2CCCC2)Nc2nccc(n2)-c2cccc(c2)OCC/1 | 76.3 | 7.43 µM
CC(C)[C@]12O[C@H]1[C@@H]3O[C@@]34[C@@]5(C)CC\C6=C(COC6=O)/[C@@H]5C[C@@H]7O[C@]47[C@@H]2O | 22.7 | 0.0332 µM
CC1(C)Cc2c(sc(NC(=S)NC(=O)c3ccccc3)c2C(=O)O)CO1 | 25.5 | 26.4 µM
CC(C)c1cnn2c(NCc3ccccc3)cc(N[C@@H](CO)[C@H](O)CO)nc12 | 19.1 | 0.372 µM
CC(C)(O)c1cc2nc(-c3cnc(N)nc3)nc(N3CCOCC3)c2s1 | 33.5 | 0.148 µM
CNC(=O)c1ccc(Nc2cc(Nc3ccccc3[S+](=O)([O-])C(C)C)c3cc[nH]c3n2)nc1 | 10.4 | 18.7 µM
CN[C@@H]1[C@H](O)[C@H](NC)[C@H]2O[C@@]3(O)C(=O)C[C@@H](C)O[C@H]3O[C@@H]2[C@H]1O | 13.3 | 10.5 µM
COc1cc2nc(-c3ccc(N4CCN(C)CC4)cc3)nc(NCCN3CCOCC3)c2cc1OC | 48.5 | 1.05 µM
Cc1cnc(Nc2ccc(N3CCN(C)CC3)cc2)nc1Nc1cccc([S+](=O)([O-])NC(C)(C)C)c1 | 30.2 | 16.6 µM
CO[C@H]1/C=C\C=C(\C)C(=O)NC2=CC(=O)C(NCCN(C)C)=C(C[C@@H](C)C[C@H](OC)[C@H](O)[C@@H](C)/C=C(/C)[C@@H]1OC(N)=O)C2=O | 5.25 | 1.18 µM
CC/C(=C(/c1ccc(O)cc1)c1ccc(OCCNC)cc1)c1ccccc1 | 23.9 | 23.5 µM
COC1=C2C[C@@H](C)C[C@H](OC)[C@H](O)[C@@H](C)/C=C(\C)[C@H](OC(N)=O)[C@@H](OC)/C=C/C=C(\C)C(=O)NC(=CC1=O)C2=O | 23.9 | 4.69 µM
CCOC(=O)[C@H](CCc1ccccc1)N[C@@H](C)C(=O)N1[C@H](C(=O)O)C[C@@H]2CCC[C@@H]21 | 4.65 | 26.4 µM
